Reference: patent US7799781B2, “5,6,7,8-tetrahydropteridine derivatives as HSP90 inhibitors” (AstraZeneca AB, priority 2007, dated 2010)

molecular target: T1, HSP90α (Homo sapiens, UniProt P07900); assay: Test (a) In Vitro Binding Assay (fluorescence polarisation, binding to the ATP pocket of HSP90α); conditions: FP probe displacement, geometric mean where tested more than once
T1 construct: 6H is tagged HSP90α protein (amino acids 2-732) expressed in E. coli; 6His; made in house; host or cells: E. coli
Experimental: Test (a) In Vitro Binding Assay
Test (a) measures the ability of a compound to bind to the ATP pocket of HSP90α. 6H is tagged HSP90α protein (amino acids 2-732) expressed in E. coli was purified and stored at −80° C. in aliquots. Assay measurements were performed in assay buffer comprising 20 mM HEPES pH 7.4, 50 mM KCl, 20 mM NaHMoO4, 0.01% Nonidet P40, 2 mM DTT and 0.1 mg/ml BSA. Following resuspension in DMSO, the FP probe 3-[[5-(5-ethyl-2,4-dihydroxy-phenyl)-4-(4-methoxyphenyl)2H-pyrazole-3-carbonyl]amino]propyl-Cy3B-amide; 14-(2-{[3-({[3-(5-ethyl-2,4-dihydroxyphenyl)-4-(4-methoxyphenyl)-1H-pyrazol-5-yl]carbonyl}amino)propyl]amino}-2-oxoethyl)-16,16,18,18-tetramethyl-2-sulfo-6,7,7a,8a,9,10,16,18-octahydrobenzo[2″,3″]indolizino [8″,7″:5′,6′]pyrano[3′,2′:3,4]pyrido[1,2-a]indol-5-ium) was diluted to a final concentration of 5 nM in assay buffer. Test compounds were prepared by dilution in 100% DMSO to give the appropriate dose range and dispensed into a 384 well assay plate as a 6X concentrate. Upon addition of recombinant HSP90α to a final assay concentration of 1 μg/ml, FP probe was added and plates incubated at room temperature for 1 to 4 hours. Final DMSO concentration was 1% in a total assay volume of 18 μl. Fluorescence Polarisation measurements were made using a Tecan Ultra plate reader using an excitation wavelength of 530 nm and an emission wavelength of 590 nm. Millipolarisation (mP) values were estimated using Xfluor software.
The data in the above table was generated in an assay substantially as described above in relation to in-vitro Binding Assay (a). Some of the compounds shown in the table were tested more than once in the assay. For those compounds the IC50 value shown is the geometric mean of the measured IC50 values. Therefore, as will be understood, the IC50 values quoted above are not absolute and further measurements of the IC50 values may result in a different mean IC50 value.

Row | SMILES | IC50 [nM]
1 | COc1c(C)cnc(CN2CC(=O)N(CCC(C)C)c3cnc(N)nc32)c1C [Example 11.5, 2-amino-8-[(4-methoxy-3,5-dimethylpyridin-2-yl)methyl]-5-(3-methylbutyl)-7,8-dihydropteridin-6(5H)-one] | 3780
2 | CCCN1C(=O)CN(Cc2ncc(C)c(OC)c2C)c2nc(N)nc(Cl)c21 [Example 11.23, 2-amino-4-chloro-8-[(4-methoxy-3,5-dimethylpyridin-2-yl)methyl]-5-propyl-7,8-dihydropteridin-6(5H)-one] | 49.6
3 | COc1c(C)cnc(CN2CC(=O)Nc3cnc(N)nc32)c1C [Example 2.3, 2-amino-8-[(4-methoxy-3,5-dimethylpyridin-2-yl)methyl]-7,8-dihydropteridin-6(5H)-one] | 1160
4 | COc1c(C)cnc(CN2c3nc(N)ncc3N(CCN3CCCC3=O)C(=O)[C@H]2C)c1C [Example 11.21, (7R)-2-amino-8-[(4-methoxy-3,5-dimethylpyridin-2-yl)methyl]-7-methyl-5-[2-(2-oxopyrrolidin-1-yl)ethyl]-7,8-dihydropteridin-6(5H)-one] | 4610
5 | CCCN1C(=O)CN(Cc2ncc(C)c(OC)c2C)c2nc(N)ncc21 [Example 11.19, 2-amino-8-[(4-methoxy-3,5-dimethylpyridin-2-yl)methyl]-5-propyl-7,8-dihydropteridin-6(5H)-one] | 619
6 | COc1c(C)cnc(CN2CC(=O)N(CCc3ccccc3)c3c(Cl)nc(N)nc32)c1C [Example 11.24, 2-amino-4-chloro-8-[(4-methoxy-3,5-dimethylpyridin-2-yl)methyl]-5-(2-phenylethyl)-7,8-dihydropteridin-6(5H)-one] | 81.8
7 | COc1c(C)cnc(CN2c3nc(N)ncc3NC[C@@H]2C)c1C [Example 5, (7S)-8-[(4-methoxy-3,5-dimethylpyridin-2-yl)methyl]-7-methyl-5,6,7,8-tetrahydropteridin-2-amine] | 81100
8 | COc1c(C)cnc(CN2c3nc(N)ncc3N(CC(C)(C)N(C)C)C(=O)[C@H]2C)c1C [Example 11.12, (7R)-2-amino-5-[2-(dimethylamino)-2-methylpropyl]-8-[(4-methoxy-3,5-dimethylpyridin-2-yl)methyl]-7-methyl-7,8-dihydropteridin-6(5H)-one] | 16000
9 | CCN1C(=O)[C@H](C)N(Cc2ncc(C)c(OC)c2C)c2nc(N)ncc21 [Example 4.1, (7S)-2-amino-5-ethyl-8-[(4-methoxy-3,5-dimethylpyridin-2-yl)methyl]-7-methyl-7,8-dihydropteridin-6(5H)-one] | 16700
10 | COc1c(C)cnc(CN2CC(=O)N(CCC(C)C)c3c(Cl)nc(N)nc32)c1C [Example 11.6, 2-amino-4-chloro-8-[(4-methoxy-3,5-dimethylpyridin-2-yl)methyl]-5-(3-methylbutyl)-7,8-dihydropteridin-6(5H)-one] | 96.8
11 | COc1c(C)cnc(CN2c3nc(N)ncc3N(CCN3CCNC3=O)C(=O)[C@H]2C)c1C [Example 11.20, (7R)-2-amino-8-[(4-methoxy-3,5-dimethylpyridin-2-yl)methyl]-7-methyl-5-[2-(2-oxoimidazolidin-1-yl)ethyl]-7,8-dihydropteridin-6(5H)-one] | 2680

Next, values leading:

Row | IC50 [nM] | SMILES
12 | 330 | COc1c(C)cnc(CN2CC(=O)N(C)c3cnc(N)nc32)c1C [Example 4.3, 2-amino-8-[(4-methoxy-3,5-dimethylpyridin-2-yl)methyl]-5-methyl-7,8-dihydropteridin-6(5H)-one]
13 | 13000 | COc1c(C)cnc(CN2CCN(C)c3cnc(N)nc32)c1C [Example 6.4, 8-[(4-methoxy-3,5-dimethylpyridin-2-yl)methyl]-5-methyl-5,6,7,8-tetrahydropteridin-2-amine]
14 | 2870 | COc1c(C)cnc(CN2c3nc(N)ncc3NC[C@H]2C)c1C [Example 6.2, (7R)-8-[(4-methoxy-3,5-dimethylpyridin-2-yl)methyl]-7-methyl-5,6,7,8-tetrahydropteridin-2-amine]
15 | 6090 | COc1c(C)cnc(CN2c3nc(N)ncc3N(CCN3CCCC3)C(=O)[C@H]2C)c1C [Example 11.11, (7R)-2-amino-8-[(4-methoxy-3,5-dimethylpyridin-2-yl)methyl]-7-methyl-5-(2-pyrrolidin-1-ylethyl)-7,8-dihydropteridin-6(5H)-one]
16 | 1480 | COc1c(C)cnc(CN2c3nc(N)ncc3N(CCCc3cccnc3)C(=O)[C@H]2C)c1C [Example 11.17, (7R)-2-amino-8-[(4-methoxy-3,5-dimethylpyridin-2-yl)methyl]-7-methyl-5-(3-pyridin-3-ylpropyl)-7,8-dihydropteridin-6(5H)-one]
17 | 4850 | COc1c(C)cnc(CN2c3nc(N)ncc3N(CCCN(C)C)C(=O)[C@H]2C)c1C [Example 11.13, (7R)-2-amino-5-[3-(dimethylamino)propyl]-8-[(4-methoxy-3,5-dimethylpyridin-2-yl)methyl]-7-methyl-7,8-dihydropteridin-6(5H)-one]
18 | 1750 | COc1c(C)cnc(CN2c3nc(N)ncc3NC(=O)[C@H]2CC(N)=O)c1C [Example 13, 2-{(7R)-2-amino-8-[(4-methoxy-3,5-dimethylpyridin-2-yl)methyl]-6-oxo-5,6,7,8-tetrahydropteridin-7-yl}acetamide]
19 | 375 | COc1c(C)cnc(CN2c3nc(N)ncc3N(CCC(C)C)C(=O)[C@H]2C)c1C [Example 11.7, (7R)-2-amino-8-[(4-methoxy-3,5-dimethylpyridin-2-yl)methyl]-7-methyl-5-(3-methylbutyl)-7,8-dihydropteridin-6(5H)-one]

same assay, conditions: verbal assessment

Row | activity in the enzyme assay, test (a) | SMILES
20 | low activity | COc1c(C)cnc(CN2c3nc(N)ncc3NC[C@@H]2C)c1C [Example 5, (7S)-8-[(4-methoxy-3,5-dimethylpyridin-2-yl)methyl]-7-methyl-5,6,7,8-tetrahydropteridin-2-amine]
